Article PMC12337341 (Proceedings of the National Academy of Sciences of the …, 2025)

Legend:
Assay type in all cases: biochemical
[1] = target: DCXR (Homo sapiens, UniProt Q7Z4W1); test: 1H NMR
[2] = target: T1, CRYL1 (Homo sapiens, UniProt Q9Y2S2); test: 1H NMR, NADH at […] nm and UHPLC-HRMS of product BKG; settings: 20 mM potassium phosphate pH 7.9, 25 °C, NAD+ (NMR); oxidation at C3
T1 sequence (Q9Y2S2 2-319): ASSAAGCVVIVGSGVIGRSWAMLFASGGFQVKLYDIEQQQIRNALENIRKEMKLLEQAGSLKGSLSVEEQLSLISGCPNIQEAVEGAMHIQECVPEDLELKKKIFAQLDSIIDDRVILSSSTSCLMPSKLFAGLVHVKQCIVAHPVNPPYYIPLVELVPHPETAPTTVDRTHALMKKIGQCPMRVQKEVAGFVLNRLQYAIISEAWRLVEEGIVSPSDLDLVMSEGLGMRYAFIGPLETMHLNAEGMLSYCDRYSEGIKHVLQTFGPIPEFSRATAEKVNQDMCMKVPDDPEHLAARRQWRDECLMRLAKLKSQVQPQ

[3] = target: T1, CRYL1; test: NADH formation at […] nm; settings: 20 mM potassium phosphate, 37 °C, L-gulonate

Sequence of DCXR (Q7Z4W1 whole entry): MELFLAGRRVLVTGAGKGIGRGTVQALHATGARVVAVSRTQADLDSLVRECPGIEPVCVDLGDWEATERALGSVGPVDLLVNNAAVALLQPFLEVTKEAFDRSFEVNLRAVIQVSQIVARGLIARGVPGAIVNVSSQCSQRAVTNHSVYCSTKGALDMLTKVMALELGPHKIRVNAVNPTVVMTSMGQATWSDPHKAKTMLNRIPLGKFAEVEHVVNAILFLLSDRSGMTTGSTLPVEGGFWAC

SMILES: NC(=O)c1ccc[n+]([C@@H]2O[C@H](COP(=O)(O)OP(=O)(O)OC[C@H]3O[C@@H](n4cnc5c(N)ncnc54)[C@H](OP(=O)(O)O)[C@@H]3O)[C@@H](O)[C@H]2O)c1 [NADP+]
- 1H NMR ([1]; reverse reaction with xylitol, same): using DCXR in the reverse reaction with xylitol and NADP+ as substrates

SMILES: OC[C@@H](O)[C@H](O)[C@@H](O)CO [xylitol]
- 1H NMR ([1]; reverse reaction with NADP+, 20 mM potassium phosphate pH 7.9, 25 °C): using DCXR in the reverse reaction with xylitol and NADP+ as substrates

SMILES: O=C(O)[C@@H](O)[C@@H](O)[C@H](O)[C@@H](O)CO [L-gulonate]
- 1H NMR, NADH at 340 nm and UHPLC-HRMS of product BKG [2]: the CRYL1 oxidation of L-gulonate at C3 is observed

SMILES: NC(=O)c1ccc[n+]([C@@H]2O[C@H](COP(=O)(O)OP(=O)(O)OC[C@H]3O[C@@H](n4cnc5c(N)ncnc54)[C@H](O)[C@@H]3O)[C@@H](O)[C@H]2O)c1 [NAD^+]
- NADH formation at 340 nm [3]: exploiting the equilibrium of the NAD-dependent reaction of CRYL1
